Experimental data taken from PubChem BioAssay (NCI).
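Exposure lasted 48 hours, with cells grown in 96-well plates and compounds tested at five concentrations. GI50: concentration for 50% inhibition of growth. TGI denotes the concentration required for complete inhibition of growth.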

What was measured:
Assay in all cases: NCI tumour cell line growth inhibition, 48 h
[1] = tested on: HOP-62 NSCLC
[2] = tested on: SK-MEL-5 melanoma
[3] = tested on: HOP-92 NSCLC
[4] = tested on: UO-31 renal
[5] = tested on: HCC-2998 colon
[6] = tested on: A549 NSCLC
[7] = tested on: MOLT-4 leukemia
[8] = tested on: HL-60(TB) leukemia
[9] = tested on: SN12C renal
[10] = tested on: CAKI-1 renal
[11] = tested on: 786-0 renal
[12] = tested on: HCT-116 colon
[13] = tested on: LOX IMVI melanoma
[14] = tested on: NCI-H226 lung
[15] = tested on: OVCAR-8 ovarian
[16] = tested on: MDA-MB-231 breast
[17] = tested on: PC-3 prostate
[18] = tested on: SK-MEL-2 melanoma
[19] = tested on: UACC-62 melanoma
[20] = tested on: HT29 colon
[21] = tested on: T-47D breast
[22] = tested on: NCI-H460 lung
[23] = tested on: DU-145 prostate
[24] = tested on: NCI/ADR-RES ovarian
[25] = tested on: HCT-15 colon
[26] = tested on: COLO 205 colon
[27] = tested on: SF-268 CNS
[28] = tested on: ACHN renal
[29] = tested on: SW-620 colon
[30] = tested on: SF-539 CNS
[31] = tested on: OVCAR-3 ovarian
[32] = tested on: OVCAR-4 ovarian
[33] = tested on: SK-MEL-28 melanoma
[34] = tested on: SF-295 CNS
[35] = tested on: OVCAR-5 ovarian
[36] = tested on: M14 melanoma
[37] = tested on: NCI-H23 lung
[38] = tested on: A498 renal
[39] = tested on: EKVX NSCLC
[40] = tested on: IGROV1 ovarian
[41] = tested on: SK-OV-3 ovarian
[42] = tested on: NCI-H522 lung
[43] = tested on: SNB-75 CNS
[44] = tested on: MDA-MB-435
[45] = tested on: SNB-19 CNS
[46] = tested on: TK-10 renal
[47] = tested on: CCRF-CEM leukemia
[48] = tested on: HS 578T breast
[49] = tested on: UACC-257 melanoma
[50] = tested on: K-562 leukemia
[51] = tested on: U251 CNS
[52] = tested on: KM12 colon
[53] = tested on: MALME-3M melanoma
[54] = tested on: RPMI-8226 leukemia
[55] = tested on: RXF 393 renal
[56] = tested on: BT-549 breast

## Oc1cccc2c1NCCC2
[1]
  GI50: 146 nM
  TGI: 42.5 µM
[2]
  GI50: 109 nM
  TGI: 1850 nM
[3]
  GI50: 23.1 nM
  TGI: 66 nM
[4]
  GI50: 75 nM
  TGI: 13.5 µM
[5]
  GI50: 3.67 µM
  TGI: > 89.7 µM
[6]
  GI50: 111 nM
  TGI: > 32.2 µM
[7]
  GI50: 1270 nM
  TGI: > 100 µM
[8]
  GI50: 194 nM
  TGI: 7.84 µM
[9]
  GI50: 121 nM
  TGI: > 76.2 µM
[10]
  GI50: 2240 nM
  TGI: 16.6 µM
[11]
  GI50: 734 nM
  TGI: > 100 µM
[12]
  GI50: 100 nM
  TGI: > 100 µM
[13]
  GI50: 119 nM
  TGI: > 36.7 µM
[14]
  GI50: 3.07 µM
  TGI: 35.2 µM
[15]
  GI50: 129 nM
  TGI: 22.3 µM
[16]
  GI50: 183 nM
  TGI: > 100 µM
[17]
  GI50: 119 nM
  TGI: > 100 µM
[18]
  GI50: 433 nM
  TGI: 2960 nM
[19]
  GI50: 144 nM
  TGI: 4.51 µM
[20]
  GI50: 5.19 µM
  TGI: > 100 µM
[21]
  GI50: 581 nM
  TGI: 96.2 µM
[22]
  GI50: 103 nM
  TGI: 4.66 µM
[23]
  GI50: 229 nM
  TGI: 54.8 µM
[24]
  GI50: 1250 nM
  TGI: 30.4 µM
[25]
  GI50: 190 nM
  TGI: > 100 µM
[26]
  GI50: 2840 nM
  TGI: 12.9 µM
[27]
  GI50: 244 nM
  TGI: > 67.2 µM
[28]
  GI50: 127 nM
  TGI: > 70.7 µM
[29]
  GI50: 133 nM
  TGI: > 100 µM
[30]
  GI50: 140 nM
  TGI: > 47.3 µM
[31]
  GI50: 42.5 nM
  TGI: 2590 nM
[32]
  GI50: 1650 nM
  TGI: > 100 µM
[33]
  GI50: 2190 nM
  TGI: > 100 µM
[34]
  GI50: 139 nM
  TGI: > 22.6 µM
[35]
  GI50: 4.35 µM
  TGI: > 100 µM
[36]
  GI50: 142 nM
  TGI: 15.6 µM
[37]
  GI50: 103 nM
  TGI: > 37 µM
[38]
  GI50: 2570 nM
  TGI: 9.07 µM
[39]
  GI50: 1780 nM
  TGI: > 100 µM
[40]
  GI50: 745 nM
  TGI: > 100 µM
[41]
  GI50: 891 nM
  TGI: > 100 µM
[42]
  GI50: 93.7 nM
  TGI: 1750 nM
[43]
  GI50: 159 nM
  TGI: > 100 µM
[44]
  GI50: 122 nM
  TGI: > 100 µM
[45]
  GI50: 164 nM
  TGI: > 100 µM
[46]
  GI50: 1960 nM
  TGI: > 100 µM
[47]
  GI50: 219 nM
  TGI: > 100 µM
[48]
  GI50: 183 nM
  TGI: > 100 µM
[49]
  GI50: 1120 nM
  TGI: 5.83 µM
[50]
  GI50: 141 nM
  TGI: > 73.9 µM
[51]
  GI50: 102 nM
  TGI: > 100 µM
[52]
  GI50: 903 nM
  TGI: > 100 µM
[53]
  GI50: 135 nM
  TGI: 98.9 µM
[54]
  GI50: 120 nM
  TGI: > 100 µM
[55]
  GI50: 177 nM
  TGI: 32.7 µM
[56]
  GI50: 541 nM
  TGI: > 100 µM
